Measurements published in doi:10.1101/2024.10.14.618300v1 (biorxiv, 2024).

How the values were obtained:
[1] = target: T1, mTSPO (recombinant mouse translocator protein) (Mus musculus, UniProt P50637); test: […] NMR chemical shift titration; type: binding
[2] = target: T1, mTSPO (recombinant mouse translocator protein); test: […] NMR competition with RF3458; type: binding

Row | Kd [1] | Ki [2] | SMILES
1 | ~5 µM |  | CN(C(=O)[C@H](Cc1ccc(F)cc1)NC(=O)c1ccccc1)c1ccccc1 [4b, RF3458]
2 |  | ~90 µM | CC[C@@H](C)N(C)C(=O)c1cc2ccccc2c(-c2ccccc2Cl)n1 [(R)-PK 11195, 1-(2-Chlorophenyl)-N-methyl-N-(1-methylpropyl)-3-isoquinolinecarboxamide]
